Test results taken from US10966951B2, “Compositions and methods for lowering triglycerides in a subject having reduced kidney function” (Amarin Pharmaceuticals Ireland Limited, priority 2017, dated 2021).

Assays:
Assay type in all cases: in vivo, human
[1] = test system: patients with chronic kidney disease (eGFR<60 mL/min/1.73 m^2); assay: Renal parameters and safety in ANCHOR patients with CKD (Example 7)
Procedure: CVD-related (e.g., atherogenic) parameters were analyzed in a post-hoc study of 55 patients from the multi-center, placebo-controlled, randomized double-blind, 12-week study described in Example 1. These 55 patients have chronic kidney disease (e.g., eGFR<60 mL/min/1.73 m^2 for ≥3 months). There was no lower limit of eGFR specified.
19 patients were randomized to E-EPA and 36 patients were randomized to placebo. One patient in each group discontinued and was excluded from efficacy analyses (but not safety analyses). EPA levels in plasma and RBC were measured in 23 of the 55 patients. These measurements were taken on 7 of the patients randomized to E-EPA and on 16 of the patients that were randomized to the placebo.
The median difference in percent change from baseline between 4 g/day of E-EPA and placebo for the primary efficacy variable and additional assessments were estimated using the Hodges-Lehmann method (P values from the Wilcoxon rank-sum test for treatment comparisons). Using the Hodges-Lehmann method, departures from normal distribution were observed; for normally distributed parameters, an analysis of covariance model was used with least squares (LS) means and standard errors (SE). Missing values were imputed using the last-observation-carried-forward method. For all post hoc analyses, the alpha for statistical significance was 0.05.

[2] = Essential fatty acid parameters in RBC, 6-week AAMI study (Example 2)
Procedure: A single-center, 6-week, double-blind, randomized, parallel-group, placebo-controlled, dose-ranging pilot study was performed to evaluate the efficacy, tolerability, and safety of >96% E-EPA in subjects with subjective and objective memory impairment according to generally accepted criteria for Age-Associated Memory Impairment (“AAMI”). The primary objective of the study was to determine the effect of >96% E-EPA 1 g, 2 g, and 4 g daily, compared to placebo, on cognitive performance in subjects with AAMI.
Ninety-four subjects were randomized into one of six groups: 1 g E-EPA daily (n=23), 2 g E-EPA daily (n=24), 4 g E-EPA daily (n=24), 1 g placebo daily (n=7), 2 g placebo daily (n=8), and 4 g placebo daily (n=8). E-EPA was provided as 500 mg soft gel capsules containing >96% E-EPA and 0.2% dl-α-tocopherol as an antioxidant. Placebo capsules contained 467 mg of liquid paraffin and 0.2% dl-α-tocopherol. Ninety-one subjects completed the study. Two subjects in the 2 g E-EPA group and one subject in the 2 g placebo group discontinued the study.
Blood samples (10 mL) were collected at Visit 1 (screening) and at Visits 4, 5, and 6. Analysis was performed by MSR Lipid Analysis, Scottish Crop Research Institute, Dundee, UK. The screening sample acted as baseline for the EFA measurements. Lipid was extracted from plasma, serum, and RBC suspensions and converted into fatty acid methyl esters which were analyzed by gas chromatography to give fatty acid profiles as micrograms fatty acid per gram of sample ([…]) and normalized area percent.
RBC and plasma EFA data were collected at baseline, Day 14, 28, and 42 and summarized by visit for each treatment group. Change from baseline and percent change from baseline were also summarized. ANCOVA comparison of E-EPA dose groups and E-EPA versus placebo was performed.

[3] = test system: subjects with Age-Associated Memory Impairment; assay: Safety and tolerability, 6-week AAMI study (Example 2)
Procedure: Ninety-four subjects were randomized into one of six groups: 1 g E-EPA daily (n=23), 2 g E-EPA daily (n=24), 4 g E-EPA daily (n=24), 1 g placebo daily (n=7), 2 g placebo daily (n=8), and 4 g placebo daily (n=8).
All randomized subjects that received at least 1 dose of study medication were included in the Safety Population.
Safety evaluations were based on the safety population. Safety and tolerability were assessed in terms of AEs, vital signs, 12-lead ECG, clinical laboratory data, medical history, and study drug compliance. Safety and tolerability data were presented by treatment group.

CC/C=C\C/C=C\C/C=C\C/C=C\C/C=C\CCCC(=O)OCC [E-EPA, ethyl eicosapentaenoate]
nausea, nasopharyngitis, and arthralgia ([1]; 4 g/day): not reported by any patients | eGFR median difference in change from baseline compared with placebo ([1]; 4 g/day vs placebo, P=0.1983): −7.8% | serum creatinine median difference in change from baseline compared with placebo ([1]; 4 g/day vs placebo, P=0.1983): 6.5% | BUN median difference in change from baseline compared with placebo ([1]; 4 g/day vs placebo, P=0.5291): 5.5% | BUN median difference in change from baseline compared with placebo ([1]; 4 g/day vs placebo, P=0.5471): 1.0 mg/dL | patients reporting diarrhea ([1]; 4 g/day, 2 patients): 10.5% | patients reporting TEAE ([1]; 4 g/day, 11 of 19 patients): 57.9% | serum albumin change from baseline ([1]; 4 g/day, 12-week study): no significant median changes from baseline | BUN, median (IQR), baseline ([1]; 4 g/day, baseline): 24.5 (12.0) mg/dL | eGFR, median (IQR), baseline ([1]; 4 g/day, baseline): 55.0 (13.8) mL/min/1.73 m^2 | serum creatinine, median (IQR), baseline ([1]; 4 g/day, baseline): 1.2 (0.3) mg/dL | changes in serum creatinine, blood urea nitrogen (BUN), or eGFR from baseline to week 12 ([1]; 4 g/day, compared to placebo control): did not produce significant changes | BUN, median (IQR), week 12 ([1]; 4 g/day, week 12): 22.5 (11.0) mg/dL | eGFR, median (IQR), week 12 ([1]; 4 g/day, week 12): 56.0 (12.9) mL/min/1.73 m^2 | serum creatinine, median (IQR), week 12 ([1]; 4 g/day, week 12): 1.2 (0.4) mg/dL | AA Mean change from Baseline, Mean (SD) ([2]; 1 g daily, Day 14): −8.1 (21.95) μg/g | DGLA Mean change from Baseline, Mean (SD) ([2]; 1 g daily, Day 14): −2.7 (3.82) μg/g | DHA Mean change from Baseline, Mean (SD) ([2]; 1 g daily, Day 14): −4.6 (9.76) μg/g | EPA/AA Mean change from Baseline, Mean (SD) ([2]; 1 g daily, Day 14): 0.1 (0.04) | AA Mean change from Baseline, Mean (SD) ([2]; 1 g daily, Day 28): −17.0 (20.69) μg/g | DGLA Mean change from Baseline, Mean (SD) ([2]; 1 g daily, Day 28): −3.8 (3.31) μg/g | DHA Mean change from Baseline, Mean (SD) ([2]; 1 g daily, Day 28): −6.4 (11.57) μg/g | EPA/AA Mean change from Baseline, Mean (SD) ([2]; 1 g daily, Day 28): 0.1 (0.05) | DGLA Mean change from Baseline, Mean (SD) ([2]; 1 g daily, Day 42): −3.5 (4.51) μg/g | DHA Mean change from Baseline, Mean (SD) ([2]; 1 g daily, Day 42): −7.0 (12.20) μg/g | EPA/AA Mean change from Baseline, Mean (SD) ([2]; 1 g daily, Day 42): 0.1 (0.06) | DGLA Baseline Mean (SD) ([2]; 1 g daily): 23.0 (5.19) μg/g | EPA/AA Baseline Mean (SD) ([2]; 1 g daily): 0.1 (0.07) | AA LS Mean, 1 g versus 4 g ([2]; 1 g versus 4 g): 8.4 µg/g | DGLA LS Mean, 1 g versus 4 g ([2]; 1 g versus 4 g): 1.5 µg/g | DHA LS Mean, 1 g versus 4 g ([2]; 1 g versus 4 g): 1.0 µg/g | EPA/AA LS Mean, 1 g versus 4 g ([2]; 1 g versus 4 g): −0.18 | AA Mean change from Baseline, Mean (SD) ([2]; 2 g daily, Day 14): −3.1 (25.84) μg/g | DGLA Mean change from Baseline, Mean (SD) ([2]; 2 g daily, Day 14): −2.6 (3.54) μg/g | DHA Mean change from Baseline, Mean (SD) ([2]; 2 g daily, Day 14): −2.0 (9.46) μg/g | EPA/AA Mean change from Baseline, Mean (SD) ([2]; 2 g daily, Day 14): 0.2 (0.04) | DGLA Mean change from Baseline, Mean (SD) ([2]; 2 g daily, Day 28): −4.5 (3.58) μg/g | DHA Mean change from Baseline, Mean (SD) ([2]; 2 g daily, Day 28): −6.2 (9.34) μg/g | EPA/AA Mean change from Baseline, Mean (SD) ([2]; 2 g daily, Day 28): 0.02 (0.06) | DGLA Mean change from Baseline, Mean (SD) ([2]; 2 g daily, Day 42): −5.3 (3.65) μg/g | DHA Mean change from Baseline, Mean (SD) ([2]; 2 g daily, Day 42): −6.3 (9.42) μg/g | EPA/AA Mean change from Baseline, Mean (SD) ([2]; 2 g daily, Day 42): 0.3 (0.06) | DGLA Baseline Mean (SD) ([2]; 2 g daily): 23.0 (5.76) μg/g | EPA/AA Baseline Mean (SD) ([2]; 2 g daily): 0.1 (0.06) | AA LS Mean, 2 g versus 4 g ([2]; 2 g versus 4 g): 9.8 µg/g | DGLA LS Mean, 2 g versus 4 g ([2]; 2 g versus 4 g): 1.5 µg/g | DHA LS Mean, 2 g versus 4 g ([2]; 2 g versus 4 g): 1.0 µg/g | EPA/AA LS Mean, 2 g versus 4 g ([2]; 2 g versus 4 g): −0.11 | DGLA Mean change from Baseline, Mean (SD) ([2]; 4 g daily, Day 14): −5.3 (4.10) μg/g | DHA Mean change from Baseline, Mean (SD) ([2]; 4 g daily, Day 14): −6.9 (9.13) μg/g | EPA/AA Mean change from Baseline, Mean (SD) ([2]; 4 g daily, Day 14): 0.3 (0.07) | DGLA Mean change from Baseline, Mean (SD) ([2]; 4 g daily, Day 28): −7.1 (4.63) μg/g | DHA Mean change from Baseline, Mean (SD) ([2]; 4 g daily, Day 28): −8.7 (11.63) μg/g | EPA/AA Mean change from Baseline, Mean (SD) ([2]; 4 g daily, Day 28): 0.4 (0.11) | DGLA Mean change from Baseline, Mean (SD) ([2]; 4 g daily, Day 42): −8.0 (4.98) μg/g | EPA/AA Mean change from Baseline, Mean (SD) ([2]; 4 g daily, Day 42): 0.4 (0.14) | DGLA Baseline Mean (SD) ([2]; 4 g daily): 24.0 (5.77) μg/g | EPA/AA Baseline Mean (SD) ([2]; 4 g daily): 0.1 (0.04) | subjects with nausea Possibly Related to the study drug ([3]; 1 g cohort): two | nausea Probably Related to the study drug ([3]; 1 g, one subject): experienced nausea that was Probably Related to the study drug | subjects with nausea Possibly Related to the study drug ([3]; 2 g cohort): one | SAE reported ([3]; 2 g treatment group): One SAE | subjects discontinued due to TEAEs ([3]; 2 g treatment group): 2 subjects | relatedness of the SAE (worsening epigastric chest pain) ([3]; 2 g, one subject): unrelated to the study drug | subjects with nausea Possibly Related to the study drug ([3]; 4 g cohort): two | diarrhea Probably Related to the study drug ([3]; 4 g, one subject): experienced diarrhea that was Probably Related to the study drug | TEAEs Definitely Related to the study drug ([3]; all groups): No TEAEs were Definitely Related
